Patent US20160038468A1 (priority 2013, published 2016)
Converted amounts (≈) assume the structure as drawn. Where two headings read alike, the source gives them in different places.

Legend:
Assay type in all cases: cell-based
Prevotella amnii = assay: Agar dilution MIC (CLSI), Prevotella amnii vaginal isolates; conditions: for Number of strains with indicated MIC: 33 samples; for MIC: read-out: Minimal Inhibitory Concentration (MIC)
Peptoniphilus harei = assay: Agar dilution MIC (CLSI), Peptoniphilus harei vaginal isolates; conditions: for Number of strains with indicated MIC: 23 samples; for MIC: read-out: Minimal Inhibitory Concentration (MIC)
Gardnerella vaginalis = assay: Agar dilution MIC (CLSI), Gardnerella vaginalis vaginal isolates; conditions: for Number of strains with indicated MIC: 100 samples
[1] = system: Megasphaera-like bacteria; assay: Agar dilution MIC (CLSI), Megasphaera-like bacteria vaginal isolates; conditions: for MIC: read-out: Minimal Inhibitory Concentration (MIC); for Number of strains with indicated MIC: 25 samples
[2] = Peptoniphilus harei, # tested 23
[3] = Gardnerella vaginalis, # tested 107

With `CO[C@H]1/C=C/O[C@@]2(C)Oc3c(C)c(O)c4c(O)c(c5c(nc6cc(C)ccn65)c4c3C2=O)NC(=O)/C(C)=C\C=C\[C@H](C)[C@H](O)[C@@H](C)[C@@H](O)[C@@H](C)[C@H](OC(C)=O)[C@@H]1C` [Rifaximin] as the compound, how does the “MIC Range” value (Prevotella amnii; # tested 33) read?
Its value is 0.015 to 0.03 µg/mL.

And the “Number of strains with indicated MIC” value (Prevotella amnii; MIC 0.015 μg/ml)?
Its value is 19.

And the “Number of strains with indicated MIC” value (Prevotella amnii; MIC 0.03 μg/ml)?
The value was 14.

And the MIC (Prevotella amnii; Prevotella amnii, isolate 601203 4)?
Its MIC is 0.015 µg/mL (≈ 0.0191 µM).

What about the MIC (Prevotella amnii; Prevotella amnii, isolate 601256 11) of the same compound?
Its MIC is 0.03 µg/mL (≈ 0.0382 µM).

And the MIC (Prevotella amnii; Prevotella amnii, isolate 601258 25)?
The MIC was 0.015 µg/mL (≈ 0.0191 µM).

And the MIC (Prevotella amnii; Prevotella amnii, isolate 601261 E)?
Its MIC is 0.015 µg/mL (≈ 0.0191 µM).

And the MIC (Prevotella amnii; Prevotella amnii, isolate 601266 20)?
Its MIC is 0.03 µg/mL (≈ 0.0382 µM).

And the MIC (Prevotella amnii; Prevotella amnii, isolate 601278 10)?
Its MIC is 0.015 µg/mL (≈ 0.0191 µM).

And the MIC (Prevotella amnii; Prevotella amnii, isolate 601287 HH)?
The MIC was 0.015 µg/mL (≈ 0.0191 µM).

And the MIC (Prevotella amnii; Prevotella amnii, isolate 601291 41)?
The MIC was 0.015 µg/mL (≈ 0.0191 µM).

And the MIC (Prevotella amnii; Prevotella amnii, isolate 601293 29)?
Its MIC is 0.03 µg/mL (≈ 0.0382 µM).

What about the MIC (Prevotella amnii; Prevotella amnii, isolate 601305 A) of the same compound?
Its MIC is 0.03 µg/mL (≈ 0.0382 µM).

And the MIC (Prevotella amnii; Prevotella amnii, isolate 601311 K)?
Its MIC is 0.03 µg/mL (≈ 0.0382 µM).

And the MIC (Prevotella amnii; Prevotella amnii, isolate 601314 19)?
The MIC was 0.03 µg/mL (≈ 0.0382 µM).

What about the MIC (Prevotella amnii; Prevotella amnii, isolate 601318 G) of the same compound?
Its MIC is 0.03 µg/mL (≈ 0.0382 µM).

And the MIC (Prevotella amnii; Prevotella amnii, isolate 601336 33)?
The MIC was 0.015 µg/mL (≈ 0.0191 µM).

And the MIC (Prevotella amnii; Prevotella amnii, isolate 601340 37)?
Its MIC is 0.015 µg/mL (≈ 0.0191 µM).

And the MIC (Prevotella amnii; Prevotella amnii, isolate 601341 H)?
The MIC was 0.015 µg/mL (≈ 0.0191 µM).

And the MIC (Prevotella amnii; Prevotella amnii, isolate 601350 A)?
Its MIC is 0.015 µg/mL (≈ 0.0191 µM).

What about the MIC (Prevotella amnii; Prevotella amnii, isolate 601365 6) of the same compound?
Its MIC is 0.015 µg/mL (≈ 0.0191 µM).

What about the MIC (Prevotella amnii; Prevotella amnii, isolate 601368 24) of the same compound?
The MIC was 0.015 µg/mL (≈ 0.0191 µM).

And the MIC (Prevotella amnii; Prevotella amnii, isolate 601369 13)?
The MIC was 0.03 µg/mL (≈ 0.0382 µM).

And the MIC (Prevotella amnii; Prevotella amnii, isolate 601375 L)?
Its MIC is 0.015 µg/mL (≈ 0.0191 µM).

What about the MIC (Prevotella amnii; Prevotella amnii, isolate 601377 9) of the same compound?
The MIC was 0.03 µg/mL (≈ 0.0382 µM).

And the MIC (Prevotella amnii; Prevotella amnii, isolate 601379 24)?
Its MIC is 0.03 µg/mL (≈ 0.0382 µM).

And the MIC (Prevotella amnii; Prevotella amnii, isolate 601388 G)?
The MIC was 0.03 µg/mL (≈ 0.0382 µM).

What about the MIC (Prevotella amnii; Prevotella amnii, isolate 601399 10) of the same compound?
Its MIC is 0.015 µg/mL (≈ 0.0191 µM).

What about the MIC (Prevotella amnii; Prevotella amnii, isolate 601405 A) of the same compound?
Its MIC is 0.015 µg/mL (≈ 0.0191 µM).

And the MIC (Prevotella amnii; Prevotella amnii, isolate 601411 L)?
The MIC was 0.03 µg/mL (≈ 0.0382 µM).

What about the MIC (Prevotella amnii; Prevotella amnii, isolate 601413 10) of the same compound?
Its MIC is 0.015 µg/mL (≈ 0.0191 µM).

What about the MIC (Prevotella amnii; Prevotella amnii, isolate 601418 27) of the same compound?
The MIC was 0.03 µg/mL (≈ 0.0382 µM).

What about the MIC (Prevotella amnii; Prevotella amnii, isolate 601426 A) of the same compound?
Its MIC is 0.015 µg/mL (≈ 0.0191 µM).

What about the MIC (Prevotella amnii; Prevotella amnii, isolate 601430 14) of the same compound?
Its MIC is 0.015 µg/mL (≈ 0.0191 µM).

And the MIC (Prevotella amnii; Prevotella amnii, isolate 601434 13)?
Its MIC is 0.015 µg/mL (≈ 0.0191 µM).

What about the MIC (Prevotella amnii; Prevotella amnii, isolate 601458 13) of the same compound?
Its MIC is 0.03 µg/mL (≈ 0.0382 µM).

What about the MIC50 (Prevotella amnii; Prevotella amnii, # tested 33) of the same compound?
The MIC50 was 0.015 µg/mL (≈ 0.0191 µM).

And the MIC90 (Prevotella amnii; Prevotella amnii, # tested 33)?
The MIC90 was 0.03 µg/mL (≈ 0.0382 µM).

What about the “MIC Range” value (Peptoniphilus harei; # tested 23) of the same compound?
The value was 0.00375 to 0.03 µg/mL.

And the “Number of strains with indicated MIC” value (Peptoniphilus harei; MIC 0.00375 μg/ml)?
Its value is 1.

And the “Number of strains with indicated MIC” value (Peptoniphilus harei; MIC 0.0075 μg/ml)?
The value was 15.

What about the “Number of strains with indicated MIC” value (Peptoniphilus harei; MIC 0.015 μg/ml) of the same compound?
Its value is 6.

And the “Number of strains with indicated MIC” value (Peptoniphilus harei; MIC 0.03 μg/ml)?
Its value is 1.

What about the MIC (Peptoniphilus harei; Peptoniphilus harei, isolate 426868V D) of the same compound?
Its MIC is 0.0075 µg/mL (≈ 0.00954 µM).

And the MIC (Peptoniphilus harei; Peptoniphilus harei, isolate 601098V Q)?
Its MIC is 0.0075 µg/mL (≈ 0.00954 µM).

What about the MIC (Peptoniphilus harei; Peptoniphilus harei, isolate 601203V 8) of the same compound?
Its MIC is 0.0075 µg/mL (≈ 0.00954 µM).

What about the MIC (Peptoniphilus harei; Peptoniphilus harei, isolate 601212V 15) of the same compound?
The MIC was 0.0075 µg/mL (≈ 0.00954 µM).

And the MIC (Peptoniphilus harei; Peptoniphilus harei, isolate 601233V R)?
Its MIC is 0.03 µg/mL (≈ 0.0382 µM).

And the MIC (Peptoniphilus harei; Peptoniphilus harei, isolate 601248V 23)?
The MIC was 0.0075 µg/mL (≈ 0.00954 µM).

What about the MIC (Peptoniphilus harei; Peptoniphilus harei, isolate 601259V 11) of the same compound?
Its MIC is 0.015 µg/mL (≈ 0.0191 µM).

And the MIC (Peptoniphilus harei; Peptoniphilus harei, isolate 601289V C)?
Its MIC is 0.0075 µg/mL (≈ 0.00954 µM).

And the MIC (Peptoniphilus harei; Peptoniphilus harei, isolate 601293V 21)?
The MIC was 0.0075 µg/mL (≈ 0.00954 µM).

And the MIC (Peptoniphilus harei; Peptoniphilus harei, isolate 601302V F1)?
Its MIC is 0.015 µg/mL (≈ 0.0191 µM).

What about the MIC (Peptoniphilus harei; Peptoniphilus harei, isolate 601311V R) of the same compound?
Its MIC is 0.00375 µg/mL (≈ 0.00477 µM).

And the MIC (Peptoniphilus harei; Peptoniphilus harei, isolate 601326V F)?
Its MIC is 0.015 µg/mL (≈ 0.0191 µM).

What about the MIC (Peptoniphilus harei; Peptoniphilus harei, isolate 601342V F) of the same compound?
The MIC was 0.0075 µg/mL (≈ 0.00954 µM).

What about the MIC (Peptoniphilus harei; Peptoniphilus harei, isolate 601355V D) of the same compound?
Its MIC is 0.015 µg/mL (≈ 0.0191 µM).

What about the MIC (Peptoniphilus harei; Peptoniphilus harei, isolate 601365V 14) of the same compound?
Its MIC is 0.0075 µg/mL (≈ 0.00954 µM).

What about the MIC (Peptoniphilus harei; Peptoniphilus harei, isolate 601374V F) of the same compound?
Its MIC is 0.015 µg/mL (≈ 0.0191 µM).

And the MIC (Peptoniphilus harei; Peptoniphilus harei, isolate 601388V Q)?
Its MIC is 0.0075 µg/mL (≈ 0.00954 µM).

And the MIC (Peptoniphilus harei; Peptoniphilus harei, isolate 601399V 16)?
The MIC was 0.0075 µg/mL (≈ 0.00954 µM).

And the MIC (Peptoniphilus harei; Peptoniphilus harei, isolate 601409V L)?
The MIC was 0.0075 µg/mL (≈ 0.00954 µM).

And the MIC (Peptoniphilus harei; Peptoniphilus harei, isolate 601413V 16)?
Its MIC is 0.0075 µg/mL (≈ 0.00954 µM).

What about the MIC (Peptoniphilus harei; Peptoniphilus harei, isolate 601426V D) of the same compound?
Its MIC is 0.0075 µg/mL (≈ 0.00954 µM).

And the MIC (Peptoniphilus harei; Peptoniphilus harei, isolate 601430V 22)?
The MIC was 0.015 µg/mL (≈ 0.0191 µM).

What about the MIC (Peptoniphilus harei; Peptoniphilus harei, isolate 601539V 25B) of the same compound?
The MIC was 0.0075 µg/mL (≈ 0.00954 µM).

And the MIC50 (Peptoniphilus harei; [2])?
The MIC50 was 0.0075 µg/mL (≈ 0.00954 µM).

And the MIC90 (Peptoniphilus harei; [2])?
Its MIC90 is 0.015 µg/mL (≈ 0.0191 µM).

What about the “share of G vaginalis strains against which the agent had activity” value (Gardnerella vaginalis) of the same compound?
Its value is about 90%.

And the MIC50 (Gardnerella vaginalis; [3])?
The MIC50 was 2 µg/mL (≈ 2.54 µM).

And the MIC90 (Gardnerella vaginalis; [3])?
Its MIC90 is over 128 µg/mL.

And the “Number of strains with indicated MIC” value (Gardnerella vaginalis; MIC 8 μg/ml)?
Its value is 3.

And the “Number of strains with indicated MIC” value (Gardnerella vaginalis; MIC >[…])?
Its value is 11.

And the MIC ([1]; 427510 h, isolate 427507 H)?
The MIC was 0.015 µg/mL (≈ 0.0191 µM).

And the MIC50 ([1]; # tested 25)?
The MIC50 was 0.015 µg/mL (≈ 0.0191 µM).

And the MIC90 ([1]; # tested 25)?
The MIC90 was 0.015 µg/mL (≈ 0.0191 µM).

What about the “MIC Range” value ([1]; # tested 25) of the same compound?
Its value is 0.0075 to 0.015 µg/mL.

What about the “Number of strains with indicated MIC” value ([1]; MIC 0.0075 μg/ml) of the same compound?
The value was 3.

And the “Number of strains with indicated MIC” value ([1]; MIC 0.015 μg/ml)?
The value was 22.

What about the MIC ([1]; isolate 426749 T) of the same compound?
Its MIC is 0.0075 µg/mL (≈ 0.00954 µM).

And the MIC ([1]; isolate 426766 Q)?
The MIC was 0.015 µg/mL (≈ 0.0191 µM).

And the MIC ([1]; isolate 426788 8a)?
Its MIC is 0.015 µg/mL (≈ 0.0191 µM).
